{
  "source": "patent US20100136537A1",
  "about": "“PHOTORECEPTOR PRECURSOR CELLS” (THE REGENTS OF THE UNIVERSITY OF MICHIGAN, priority 2006, published 2010)",
  "key": {"mGluR8": {"molecular_target": "T1, mGluR8 (Mus musculus, UniProt P47743)", "T1 construct": "from tissue; host or cells: whole-mount mouse neural retina; integrated Nrl.gfp-positive donor rods and recipient photoreceptors", "T1 sequence (P47743 34-908)": "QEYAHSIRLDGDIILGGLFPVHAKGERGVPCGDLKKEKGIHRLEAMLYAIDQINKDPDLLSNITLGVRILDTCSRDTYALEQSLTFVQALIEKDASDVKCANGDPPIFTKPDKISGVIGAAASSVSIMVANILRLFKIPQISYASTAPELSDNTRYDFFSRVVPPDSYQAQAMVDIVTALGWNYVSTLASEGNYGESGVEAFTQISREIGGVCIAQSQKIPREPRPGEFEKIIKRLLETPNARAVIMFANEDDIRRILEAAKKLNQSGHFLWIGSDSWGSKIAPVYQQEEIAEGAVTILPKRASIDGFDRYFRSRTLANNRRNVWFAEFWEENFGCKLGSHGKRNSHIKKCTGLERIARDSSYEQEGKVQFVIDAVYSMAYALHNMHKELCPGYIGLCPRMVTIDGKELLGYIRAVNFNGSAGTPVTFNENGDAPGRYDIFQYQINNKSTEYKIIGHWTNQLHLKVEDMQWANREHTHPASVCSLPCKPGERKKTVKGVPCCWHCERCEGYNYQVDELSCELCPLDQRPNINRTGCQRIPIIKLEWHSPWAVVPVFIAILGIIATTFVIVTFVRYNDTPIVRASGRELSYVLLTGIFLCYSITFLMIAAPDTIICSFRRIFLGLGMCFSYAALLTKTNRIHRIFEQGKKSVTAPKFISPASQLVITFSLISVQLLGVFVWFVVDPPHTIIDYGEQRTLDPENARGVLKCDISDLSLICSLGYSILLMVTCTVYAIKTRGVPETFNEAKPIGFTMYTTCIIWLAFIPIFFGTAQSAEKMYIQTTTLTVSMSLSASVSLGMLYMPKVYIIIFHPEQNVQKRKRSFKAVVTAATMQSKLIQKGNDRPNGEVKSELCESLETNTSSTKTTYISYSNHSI", "test": "Calcium imaging (Fura Red) of whole-mount transplanted retinas, mGluR8 stimulation", "type": "cell-based", "settings": "for changes in intracellular calcium ([Ca2+]i) on agonist application: recipient and Nrl.gfp-positive integrated rod cells, DCPG 20 μM in bath", "description": "(§1) Calcium Imaging. Retinas transplanted with Nrl.gfp^+/+ P1 cells were dissected free of all surrounding tissue. Whole-mount neural retinas were loaded with Fura Red-AM (15 μM, Molecular Probes) and the dispersant Cremophor-EL (0.03%, Sigma) for 1.5 hrs at 36° C. and then de-esterified in fresh DMEM-F12 (without phenol red) for 30 mins at 36° C. Retinas were transferred to the stage of an inverted microscope (SP2, Leica, UK) and held flat under a nylon-strung platinum wire ‘harp’. XY images were taken through the cell bodies in the inner region of the ONL, nearest the outer plexiform layer, where rod (as opposed to cone, which lie at the outer edge of the ONL) photoreceptor nuclei reside. Images were acquired at 3 sec intervals and analysed off-line. Cells were selected at random and the mean fluorescence of individual cells was calculated and normalised against the fluorescence at time 0s. Drugs were applied by micro-pipette injection into the bathing solution.\n(§2) Drugs. DCPG ((S)-3,4-dicarboxyphenylglycine) (20 μM; final concentration in bath), CPPG ((RS)-alpha-cyclopropyl-4-phosphonophenylglycine) (100 μM) and NMDA (N-methyl-D-aspartate) (200 μM) were supplied by Tocris (UK)."}, "NRL": {"tested_on": "NRL", "test": "NRL expression in serum-starved Y79 cells (immunoblot, Northern blot)", "type": "cell-based, human", "settings": "for NRL expression (immunoblot): 24 h incubation", "description": "Cell Culture. Y79 human retinoblastoma cells (ATCC HTB 18) and HEK293 (ATCC CRL-1573) were maintained in RPMI 1640 and Dulbecco's modified Eagle's medium, respectively, under standard conditions with 15% (v/v) fetal bovine serum (FBS), penicillin G (100 units/ml), and streptomycin (100 μg/ml) at 37° C. and 5% CO2. For serum starvation and RA treatment experiments, Y79 cells (5×10^4) were cultured in the presence or absence of the serum (same batch of serum was used in all the experiments), at RA, 9-cis-RA, cycloheximide (CHX), and 4-(E-2-(5,6,7,8-tetrahydro-5,5,8,8-tetramethyl-2-naphthalenl)-1-propenyl) benzoic acid (TTNPB) at indicated concentrations. Me2SO or ethanol was added to Y79 cells in lieu of the soluble factors as negative control.\nFor protein synthesis inhibition experiments, Y79 cells were serum-starved for 24 h, and then simultaneously treated with RA and CHX for 8 or 24 h. NRL expression was analyzed by immunoblotting. In another set of experiments, serum-starved Y79 cells were first incubated with RA alone for 8 or 24 h and then CHX was added. Cell extracts were then analyzed 24 h later for examining NRL expression by immunoblotting.\nProtein Expression Analysis."}, "NMDA receptor": {"tested_on": "NMDA receptor", "test": "Calcium imaging (Fura Red) of whole-mount transplanted retinas, NMDA receptor agonist", "type": "cell-based, mouse", "settings": "NMDA 200 μM; photoreceptors", "description": "as §1, §2"}, "[1]": {"molecular_target": "T2, CEP290 (wild-type mouse centrosomal protein CEP290, endogenous, retina) (mouse, UniProt Q6A078 1-2472)", "T2 construct": "range 1-2472; Endogenous protein in retinal extracts; alternatively spliced lower-mass isoforms are also mentioned; also called WT protein; full-length CEP290", "T2 sequence (Q6A078 whole entry, canonical isoform)": "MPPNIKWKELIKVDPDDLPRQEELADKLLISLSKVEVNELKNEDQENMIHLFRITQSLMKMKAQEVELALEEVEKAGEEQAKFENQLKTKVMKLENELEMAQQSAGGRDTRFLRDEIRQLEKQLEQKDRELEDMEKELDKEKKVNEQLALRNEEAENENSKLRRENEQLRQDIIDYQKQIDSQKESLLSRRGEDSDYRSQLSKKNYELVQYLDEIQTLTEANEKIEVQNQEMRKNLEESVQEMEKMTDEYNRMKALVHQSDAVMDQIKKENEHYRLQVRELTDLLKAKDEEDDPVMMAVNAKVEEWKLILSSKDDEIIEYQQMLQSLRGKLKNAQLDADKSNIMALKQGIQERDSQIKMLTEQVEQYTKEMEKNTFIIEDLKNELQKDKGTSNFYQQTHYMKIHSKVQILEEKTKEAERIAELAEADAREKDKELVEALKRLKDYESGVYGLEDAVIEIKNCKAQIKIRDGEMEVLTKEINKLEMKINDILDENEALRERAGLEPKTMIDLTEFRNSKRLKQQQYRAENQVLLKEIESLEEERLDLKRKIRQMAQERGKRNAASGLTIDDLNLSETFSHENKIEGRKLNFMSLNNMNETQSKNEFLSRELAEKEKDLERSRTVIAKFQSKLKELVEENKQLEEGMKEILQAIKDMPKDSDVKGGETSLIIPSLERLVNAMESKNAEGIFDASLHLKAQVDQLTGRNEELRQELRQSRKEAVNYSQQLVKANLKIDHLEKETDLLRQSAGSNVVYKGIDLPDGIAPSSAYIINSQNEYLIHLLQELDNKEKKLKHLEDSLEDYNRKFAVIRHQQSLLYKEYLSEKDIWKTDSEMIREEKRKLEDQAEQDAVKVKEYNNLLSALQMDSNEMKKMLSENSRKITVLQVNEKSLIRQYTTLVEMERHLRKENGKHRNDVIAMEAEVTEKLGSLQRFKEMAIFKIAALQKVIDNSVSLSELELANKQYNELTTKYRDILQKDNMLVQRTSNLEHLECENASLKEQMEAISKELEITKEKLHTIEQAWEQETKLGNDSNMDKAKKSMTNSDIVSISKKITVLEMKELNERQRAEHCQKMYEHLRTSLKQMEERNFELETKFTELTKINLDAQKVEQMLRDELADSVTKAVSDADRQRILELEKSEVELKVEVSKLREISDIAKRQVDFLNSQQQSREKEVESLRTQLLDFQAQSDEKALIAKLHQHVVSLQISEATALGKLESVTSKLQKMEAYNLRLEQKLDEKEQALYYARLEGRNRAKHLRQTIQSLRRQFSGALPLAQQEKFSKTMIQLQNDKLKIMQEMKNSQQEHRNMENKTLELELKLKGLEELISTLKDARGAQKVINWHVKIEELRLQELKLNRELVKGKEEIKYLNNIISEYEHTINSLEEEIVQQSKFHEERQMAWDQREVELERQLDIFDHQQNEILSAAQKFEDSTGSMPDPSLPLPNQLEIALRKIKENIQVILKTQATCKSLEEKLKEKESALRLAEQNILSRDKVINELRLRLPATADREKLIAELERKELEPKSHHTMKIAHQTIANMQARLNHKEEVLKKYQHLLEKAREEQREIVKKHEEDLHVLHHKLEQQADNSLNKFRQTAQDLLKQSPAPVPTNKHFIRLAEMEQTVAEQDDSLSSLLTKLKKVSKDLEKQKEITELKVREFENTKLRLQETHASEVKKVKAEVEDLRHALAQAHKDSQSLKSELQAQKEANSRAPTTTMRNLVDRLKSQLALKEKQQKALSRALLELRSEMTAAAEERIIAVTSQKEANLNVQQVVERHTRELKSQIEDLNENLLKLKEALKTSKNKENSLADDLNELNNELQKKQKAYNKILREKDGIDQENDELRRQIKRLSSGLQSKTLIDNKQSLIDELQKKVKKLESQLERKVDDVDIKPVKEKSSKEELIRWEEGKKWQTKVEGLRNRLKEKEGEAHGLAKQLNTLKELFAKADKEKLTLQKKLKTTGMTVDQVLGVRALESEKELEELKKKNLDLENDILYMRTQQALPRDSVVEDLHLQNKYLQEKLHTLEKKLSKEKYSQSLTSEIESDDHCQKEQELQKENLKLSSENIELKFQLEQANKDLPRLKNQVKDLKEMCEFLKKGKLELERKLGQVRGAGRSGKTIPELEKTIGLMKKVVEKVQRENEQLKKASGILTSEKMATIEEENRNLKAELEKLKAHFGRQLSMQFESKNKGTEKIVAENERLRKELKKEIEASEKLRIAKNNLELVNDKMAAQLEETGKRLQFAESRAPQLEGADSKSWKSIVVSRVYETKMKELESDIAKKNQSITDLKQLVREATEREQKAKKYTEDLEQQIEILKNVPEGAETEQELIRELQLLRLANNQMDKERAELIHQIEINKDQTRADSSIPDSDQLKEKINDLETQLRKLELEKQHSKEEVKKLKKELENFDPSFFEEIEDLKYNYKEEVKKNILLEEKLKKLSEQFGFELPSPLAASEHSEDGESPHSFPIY", "test": "co-immunoprecipitation from retinal extracts, immunoblot"}, "[2]": {"molecular_target": "ΔCEP290 (truncated CEP290 of the rd16 mouse, in-frame deletion of amino acid residues 1599-1897) (mouse) (UniProt Q6A078)", "test": "co-immunoprecipitation with ORF15^CP antibody from rd16 vs WT retinal extract, immunoblot for CEP290"}},
  "data": [
    {"molecule": "NC(C(=O)O)(c1ccc(P(=O)(O)O)cc1)C1CC1", "note": "(racemic) [CPPG, (RS)-alpha-cyclopropyl-4-phosphonophenylglycine]", "values": [
      {"measurement": "block of the mGluR8 agonist-evoked [Ca2+]i change", "setting": "mGluR8; CPPG 100 μM", "result": "can be blocked"}
    ]},
    {"molecule": "CC1=C(/C=C/C(C)=C\\C=C\\C(C)=C\\C(=O)O)C(C)(C)CCC1", "note": "[9-cis RA, 9-cis-RA]", "values": [
      {"measurement": "NRL expression (immunoblot)", "setting": "NRL; serum-starved Y79 cells", "result": "dose-dependent increase in NRL expression"}
    ]},
    {"molecule": "C[C@@H]1C[C@@H]([C@H](O)CC2CC(=O)NC(=O)C2)C(=O)[C@@H](C)C1", "note": "[CHX, cycloheximide]", "values": [
      {"measurement": "effect on RA-mediated NRL induction, added simultaneously with RA", "setting": "NRL; CHX 20 μg/ml with at RA, serum-starved Y79 cells", "result": "blocked NRL induction"},
      {"measurement": "effect on NRL expression, added after RA pretreatment", "setting": "NRL; cells pretreated with RA for 8 or 24 h, then CHX", "result": "no detectable effect on NRL expression"}
    ]},
    {"molecule": "N[C@H](C(=O)O)c1ccc(C(=O)O)c(C(=O)O)c1", "note": "[DCPG, (S)-3,4-dicarboxyphenylglycine]", "values": [
      {"measurement": "changes in intracellular calcium ([Ca2+]i) on agonist application", "setting": "mGluR8", "result": "consistently evoked changes in ([Ca^2+]i)"}
    ]},
    {"molecule": "CN[C@H](CC(=O)O)C(=O)O", "note": "[NMDA, N-methyl-D-aspartate]", "values": [
      {"measurement": "effect of NMDA receptor agonist on [Ca2+]i", "setting": "NMDA receptor", "result": "showed no effect"}
    ]},
    {"molecule": "C/C(=C\\c1ccc(C(=O)O)cc1)c1ccc2c(c1)C(C)(C)CCC2(C)C", "note": "[TTNPB, 4-(E-2-(5,6,7,8-tetrahydro-5,5,8,8-tetramethyl-2-naphthalenl)-1-propenyl) benzoic acid]", "values": [
      {"measurement": "NRL expression (immunoblot)", "setting": "NRL; serum-starved Y79 cells", "result": "mimicked"}
    ]},
    {"molecule": "N[C@@H](CCC(=O)O)C(=O)O", "note": "[glutamate]", "values": [
      {"measurement": "changes in intracellular calcium ([Ca2+]i) on agonist application", "setting": "mGluR8", "result": "consistently evoked changes in ([Ca^2+]i)"}
    ]},
    {"molecule": "Nephrocystin-5 (NPHP5) (other, mouse, UniProt Q8BP00 1-598, looked up) MKPAGTDPRILSLAAEVAKSPEQNVPVILLKLKEIINNTPLGSSELKKVKQDIYCYDLIQYCLLVLSQDSSRIQGGWSTISQLTQILSHCCVGLEPGEDGEEFYKELLPSAAENFLILGRRLQTCFINATKGEEQDKLLHFFQIVTDSLFWLLGGHVQLIQNVLQSDHFLHLLQTDNVQIGASVMTLLQNILQINSGNLLKIEGKALHSILDEILFKLLSTPSPVIRSTATKLLLVLAESHQEILILLRLSACYKGLRSLLNKQETLTEFSRELRQLVDLLTPKIHQEVEEQKLHKAACLIQAYWKGFQTRKRLKKLPSAVIALQRSFRSKRTKMMLELNRQKEEEDLRLKLQLQRQRAMRLSRESRLNMLEIIHPGQVEKYNREMEEKSALTIQKHWRGYRERKNFRQQRPSLTEYKAAVTLQRAVLKFLAKCRKKKKLFASWHGLQELTDARRVELKQQVDDYVKRHPCSQMSEAASRELHAQAQERLQHYFMGRAIEERAQQHREALMAQISTNIEQLMKAPSLKEAEGKEPEQFLSRSRPVAAKAKQAHLTTLKHIQAPWWKKLGEEPGDEVDVPKDELSIDLGMLFIGGTKPP", "values": [
      {"measurement": "binding result", "setting": "[1]", "result": "no binding"}
    ]},
    {"molecule": "RPGR-ORF15 (retina-enriched RPGR-ORF15 isoform(s)) (protein, mouse, UniProt Q9R0X5-5 1-1305, looked up) MAESESLVPDTGAVFTFGKTKFAENIPSKFWFKNDIPICLSCGDEHTAIVTGNNKLYMFGSNNWGQLGLGSKAAIIKPTCIKALKPEKVKLAACGRNHTLVSTDTGGVYAAGGNNEGQLGLGDTDDRDTFHQIVFFTPADTIKQLSAGANTSAALTEDGKLFMWGDNSEGQIGLEDKSNVCIPHEVTVGKPISWISCGYYHSAFVTMDGELYTFGEPENGKLGLPNELLMNHRSPQRVLGIPERVIQVACGGGHTVVLTEKVVYAFGLGQFGQLGLGTFLFETSEPKIIERIKDQKICHISCGENHTALMTELGLLYTFGDGRHGKLGLGMENFTNQFFPTLCSNFLRFAVQLIACGGCHMLVFATPRLGTIDEPKFEDVYEPYISTGSFSINDLSPRSSLNRSLSARLRRRERERPPCSASMVGTLPPLEGTSASTSAYFYPSSPPFHLSVNNYPEKSPSESMEPLDSDYFEDKMNKDTETENSSAVDSENFGETNDILNMTHMMTTSSNEKLLDFSPIQKQQNQDTFEKVMESTPCTENEDSYEYEEMSKIKEVTVYKQYLAKGIYMIRPAEILEAFSDEEVGNGLDQVEEPRVFTDGKGLQSKQVGKESDEEIVSEKKTEVMEVADVKKIRESEENSKSDSLFDDLPDKTMNSESEDNKDIAEERRSSEQNMTFDSETELVEEPDSYMECERHSEQDSAEELEQPKLVEYSSEEKDEKDEKDDDEVETENLWYDRNCTEQETENVFRATRFFPKFDLKHDHLSGIPEEQEGPEDSEGNVVVEQVVQAQKENLEFEGDRKEAKAEAPSDVITEKEVSESERESGGEREDRSEGDGDQICEKVSLETEHLQRAQGKQERKKGKDKRARCILDMKEREEDKGWEKGSEGGDKMKRDEGNQEKRKKEMEERDAGDERSEEEEGEEEEPEEGEKEEGGEEEEGTSEDQSREDEGDRQEKEGRREGKGRQEDGREGWKEGEEQEQEEEIEEGEEEEREGEEEGGEEEGEGEGEREEEGEGEEEGEGEEEGEGEEEGEGEEEGEGEEEGEGEEEGEGEEEGEGEEDGEGEEDGEGEEEGEGEEEGEREEDGEGEEDGEGEEEGEGEEEGEGEEEGEGEEEGEGEGEEEGEGEWEGEEEGEGEEEGEGEEEGEGEEEGEGEEEGEGEEEGGEDDEGEELEKKKGDITEEEEEEEEGQEGDEREREEHGSCEDDVEEDKTYDREEGEYKKAIGKVADNESQEDRKQSPKVSKINGSMKYGRHGTYSEKPITNLGKTQPSKMPMESRQLVENGLLGSERFWSDVLPLYLELK", "values": [
      {"measurement": "fold higher level co-immunoprecipitated compared with the WT protein", "setting": "[2]", "result": 50, "unit": "times"}
    ]},
    {"molecule": "nucleophosmin (NPM) (other, mouse, UniProt Q61937 1-292, looked up) MEDSMDMDMSPLRPQNYLFGCELKADKDYHFKVDNDENEHQLSLRTVSLGAGAKDELHIVEAEAMNYEGSPIKVTLATLKMSVQPTVSLGGFEITPPVVLRLKCGSGPVHISGQHLVAVEEDAESEDEDEEDVKLLGMSGKRSAPGGGNKVPQKKVKLDEDDEDDDEDDEDDEDDDDDDFDEEETEEKVPVKKSVRDTPAKNAQKSNQNGKDLKPSTPRSKGQESFKKQEKTPKTPKGPSSVEDIKAKMQASIEKGGSLPKVEAKFINYVKNCFRMTDQEAIQDLWQWRKSL", "values": [
      {"measurement": "binding result", "setting": "[1]", "result": "no binding"}
    ]}
  ]
}
